The record followed here is BindingDB's records for doi:10.7270/Q2XW4H88 (Nmmlsc, 2011).

In the assay the target is T1, Integrin alpha-L (Mus musculus, UniProt P24063).
T1 sequence (P24063 whole entry): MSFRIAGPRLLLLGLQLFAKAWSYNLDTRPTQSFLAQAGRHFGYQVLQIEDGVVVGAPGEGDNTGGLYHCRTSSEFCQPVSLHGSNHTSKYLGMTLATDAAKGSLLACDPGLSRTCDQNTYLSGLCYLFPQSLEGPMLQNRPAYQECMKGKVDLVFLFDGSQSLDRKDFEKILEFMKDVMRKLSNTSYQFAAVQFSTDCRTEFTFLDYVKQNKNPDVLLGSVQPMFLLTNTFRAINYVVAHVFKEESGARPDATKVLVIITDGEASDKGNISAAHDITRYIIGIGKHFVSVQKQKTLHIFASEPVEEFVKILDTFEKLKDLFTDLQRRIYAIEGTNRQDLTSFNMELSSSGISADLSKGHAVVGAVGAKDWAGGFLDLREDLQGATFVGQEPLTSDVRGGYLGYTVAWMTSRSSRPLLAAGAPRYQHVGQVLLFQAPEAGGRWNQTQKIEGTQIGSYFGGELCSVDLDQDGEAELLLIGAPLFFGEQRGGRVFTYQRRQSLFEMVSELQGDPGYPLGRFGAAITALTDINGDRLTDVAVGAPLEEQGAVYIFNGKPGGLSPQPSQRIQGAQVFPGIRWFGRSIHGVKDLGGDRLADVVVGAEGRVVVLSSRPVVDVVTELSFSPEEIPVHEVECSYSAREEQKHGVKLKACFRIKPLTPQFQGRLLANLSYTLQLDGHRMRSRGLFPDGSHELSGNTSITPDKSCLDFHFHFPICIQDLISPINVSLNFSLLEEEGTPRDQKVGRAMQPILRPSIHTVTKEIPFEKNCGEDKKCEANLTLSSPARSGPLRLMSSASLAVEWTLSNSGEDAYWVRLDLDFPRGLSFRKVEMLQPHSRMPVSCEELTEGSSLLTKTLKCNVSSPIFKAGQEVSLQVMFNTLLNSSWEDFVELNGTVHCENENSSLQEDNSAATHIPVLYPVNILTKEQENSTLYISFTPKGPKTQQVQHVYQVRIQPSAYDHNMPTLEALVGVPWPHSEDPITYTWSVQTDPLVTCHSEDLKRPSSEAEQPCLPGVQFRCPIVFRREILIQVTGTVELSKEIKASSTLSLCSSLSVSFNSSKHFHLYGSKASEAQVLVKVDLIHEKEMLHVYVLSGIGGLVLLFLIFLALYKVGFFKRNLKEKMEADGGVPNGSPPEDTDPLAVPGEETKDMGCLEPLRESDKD
The experiment in a line: modulators of CD8 T cell-vesicle binding, dose response, powder samples, mouse 2C CD8+ cells (AID 504565).

Take `O=C(c1ccc(-n2c(O)c3c(c2O)CC(Cl)=CC3)cc1)N1CCCCC1` [5-chloro-2-[4-[oxo(1-piperidinyl)methyl]phenyl]-3a,4,7,7a-tetrahydroisoindole-1,3-dione]: a half-maximal response (EC50) required 9.02 µM. That is a single-digit micromolar value.
